Assay results taken from article PMC3034214, “Inhibition of Escherichia coli glycosyltransferase MurG and Mycobacterium tuberculosis Gal transferase by uridine-linked transition state mimics” (Bioorganic & Medicinal Chemistry, 2010).

How the values were obtained:
E. coli MurG = E. coli MurG (Escherichia coli, UniProt P17443); test: Coupled radiochemical MraY/MurG assay ([3H]-UDPGlcNAc incorporation into lipid intermediate II); settings: for inhibition at 1000 µM: read-out: Percentage inhibition of E. coli MurG
Sequence of E. coli MurG (P17443 whole entry): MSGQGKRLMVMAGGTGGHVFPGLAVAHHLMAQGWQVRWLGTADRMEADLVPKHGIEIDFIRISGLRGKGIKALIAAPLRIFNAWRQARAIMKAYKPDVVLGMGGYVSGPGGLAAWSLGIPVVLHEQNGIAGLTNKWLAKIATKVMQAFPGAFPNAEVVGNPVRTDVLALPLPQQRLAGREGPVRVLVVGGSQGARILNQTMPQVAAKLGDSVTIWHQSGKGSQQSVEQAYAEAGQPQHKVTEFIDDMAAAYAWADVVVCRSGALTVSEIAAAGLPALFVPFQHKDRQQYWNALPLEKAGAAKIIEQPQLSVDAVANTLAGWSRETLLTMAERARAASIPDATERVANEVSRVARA

[1] = tested on: Mycobacterium tuberculosis galactosyltransferase GlfT2; test: Galactosyltransferase assay ([14C]Gal incorporation into Galf(β1→6)Galf-O-C8 acceptor, membranes and cell wall fraction); format: biochemical; settings: read-out: Percentage inhibition of Mt GTase (Mycobacterium tuberculosis galactosyl transferase)
Sequence of Mycobacterium tuberculosis galactosyltransferase GlfT2 (A0R628 whole entry): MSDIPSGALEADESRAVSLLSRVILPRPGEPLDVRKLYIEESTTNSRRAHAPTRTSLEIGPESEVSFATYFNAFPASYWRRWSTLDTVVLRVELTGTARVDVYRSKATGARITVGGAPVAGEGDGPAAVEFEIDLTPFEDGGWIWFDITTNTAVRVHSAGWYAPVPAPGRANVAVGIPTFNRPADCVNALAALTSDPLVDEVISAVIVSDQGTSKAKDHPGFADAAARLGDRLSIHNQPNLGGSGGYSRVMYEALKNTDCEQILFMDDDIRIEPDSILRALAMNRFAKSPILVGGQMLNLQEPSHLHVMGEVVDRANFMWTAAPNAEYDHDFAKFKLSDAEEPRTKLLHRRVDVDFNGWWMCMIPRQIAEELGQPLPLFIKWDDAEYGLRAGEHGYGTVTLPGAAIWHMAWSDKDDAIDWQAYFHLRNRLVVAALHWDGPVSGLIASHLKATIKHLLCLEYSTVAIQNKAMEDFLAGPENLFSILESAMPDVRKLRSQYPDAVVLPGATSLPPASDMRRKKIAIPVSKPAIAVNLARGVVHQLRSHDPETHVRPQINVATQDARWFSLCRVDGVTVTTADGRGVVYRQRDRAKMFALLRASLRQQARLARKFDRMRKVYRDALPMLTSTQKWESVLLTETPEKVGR
Description: The arabinogalactan cell wall polymer of M. tuberculosis is biosynthesised through the action of a series of glycosyltransferases,[16] several of which use UDP-sugar substrates, and therefore might be inhibited by this class of compound. We have characterised a UDP-galactose-dependent galactosyltransferase activity GlfT2, which can be assayed using specific neoglycolipid acceptors in the presence of membranes and Galf(β1→6)Galf-O-C8 resulting in excellent [[14]C]Galf incorporation from UDP-[^14C]Galp, following endogenous conversion to UDP-[^14C]Galf and transferase activity (Fig. 4).[17] […] The complete chemical characterisation of the enzymatically synthesised products along with the identity of the galactosyltransferase gene product were previously reported.[17]
Liquid cultures of Mycobacterium smegmatis mc^2155 were grown at 37 °C in Luria Bertoni (LB) broth medium (Difco) supplemented with 0.05% Tween 80, biomass harvested, washed with phosphate buffered saline (PBS) and stored at −20 °C until further use. M. smegmatis cells (10 g wet weight) were washed and re-suspended in 30 ml of buffer A, containing 50 mM MOPS (adjusted to pH 8.0 with KOH), 5 mM β-mercaptoethanol and 10 mM MgCl2 at 4 °C and subjected to probe sonication (Soniprep 150, MSE Sanyo Gallenkamp, Crawley, Sussex, UK; 1 cm probe) for a total time of 10 min in 60 s pulses and 90 s cooling intervals between pulses. The sonicate centrifuged at 27,000g for 60 min at 4 °C. The resulting mycobacterial cell wall pellets were re-suspended in buffer A. Percoll (Pharmacia, Sweden) was added to yield a 60% suspension and centrifuged at 27,000g for 1 h at 4 °C. The upper, particulate diffuse cell wall enzymatically active (P60) band was collected and washed three times with buffer A and re-suspended in buffer A at a final protein concentration of 10 mg/ml. Membrane fractions were obtained by centrifugation of the 27,000g supernatant at 100,000g for 1 h at 4 °C. The supernatant was carefully removed and the membranes gently re-suspended in buffer A at a protein concentration of 20 mg/ml. Protein concentrations were determined using the BCA Protein Assay Reagent kit (Pierce Europe, Oud-Beijerland, Netherlands).
The reaction mixtures were then incubated at 37 °C for 1 h. A CHCl3/CH3OH (1:1, 533 μl) solution was then added to the incubation tubes and the entire contents centrifuged at 18,000g. The supernatant was recovered and dried under a stream of argon and re-suspended in C2H5OH/H2O (1:1, 1 ml) and loaded onto a pre-equilibrated (C2H5OH/H2O [1:1]) 1 ml Whatmann strong anion exchange (SAX) cartridge which was washed with 3 ml of ethanol. The eluate was dried and the resulting products partitioned between the two phases arising from a mixture of n-butanol (3 ml) and H20 (3 ml). The resulting organic phase was recovered following centrifugation at 3,500g and the aqueous phase was again extracted twice with 3 ml of n-butanol saturated water, the pooled extracts were back-washed twice with water saturated with n-butanol (3 ml). The n-butanol–saturated water fraction was dried and re-suspended in 200 μl of n-butanol. The total cpm of radiolabeled material extractable into the n-butanol phase was measured by scintillation counting using 10% of the labelled material and 10 ml of EcoScintA (National Diagnostics, Atlanta). The incorporation of [^14C]Gal was determined by subtracting counts present in control assays (incubation of the reaction components in the absence of the compounds).

B. subtilis = test: Antibacterial testing, growth in LB in 96-well plates (OD 595 nm); settings: B. subtilis W23
E. coli = test: as above; format: cell-based, Escherichia coli; settings: E. coli BL21
Micrococcus luteus = test: as above; settings: read-out: Growth inhibition of M. luteus
Description: (§1) The following procedure was performed using P. putida (ATCC 33015), M. luteus (ATCC 13513), E. coli BL21 and B. subtilis W23. A single colony of the bacterial strain was picked from an LB agar plate and grown in 10 ml of sterile LB medium overnight at 37 °C. 1 ml of this culture was then used to inoculate 50 ml of sterile LB medium at 2%. Hundred microlitres of this 2% culture was pipetted into each well of a 96-well plate. Hundred microlitres of sterile water or sterile aqueous inhibitor solution (200 μg/ml or 1 mg/ml) were then pipetted into each well and the 96-well plates were incubated at 37 °C. Bacterial growth was monitored by measuring the OD at 595 nm at 3, 6 and 24 h.

Pseudomonas putida = test: as above; settings: ATCC 33015
Description: as §1

Compound	inhibition at 1000 µM (E. coli MurG) [%]	inhibition at 1000 µM [1] [%]	other results
COC(=O)C1C(C(O)CO)NC2(C)C(=O)N(CC(=O)NCC3OC(n4ccc(=O)[nH]c4=O)C(O)C3O)C(=O)C12 (mixture of isomers) [15e]	27	–	IC50 (E. coli MurG): > 5 mM
COc1ccccc1[C@H]1N[C@@](C)(COC(=O)CC(=O)OC[C@H]2O[C@@H](n3ccc(=O)[nH]c3=O)[C@H](O)[C@@H]2O)[C@H]2C(=O)N(c3ccccc3)C(=O)[C@@H]12 [compound 24]	17	0	Inhibition of / binding to MurG (in words) (E. coli MurG): weak activity
COc1cccc([C@H]2N[C@@](C)(C(=O)NCC(=O)NC[C@H]3O[C@@H](n4ccc(=O)[nH]c4=O)[C@H](O)[C@@H]3O)[C@H]3C(=O)N(c4ccccc4)C(=O)[C@@H]23)c1OC (mixture of isomers) [13c]	0	0	–
COC(=O)[C@H]1[C@@H](c2ccccc2)N[C@@](C)(C(=O)NCC(=O)NC[C@H]2O[C@@H](n3ccc(=O)[nH]c3=O)[C@H](O)[C@@H]2O)[C@@H]1C(=O)OC (mixture of isomers) [14a]	0	–	–
COc1ccccc1[C@H]1N[C@@](C)(COC(=O)CCC(=O)OC[C@H]2O[C@@H](n3ccc(=O)[nH]c3=O)[C@H](O)[C@@H]2O)[C@H]2C(=O)N(c3ccccc3)C(=O)[C@@H]12 (mixture of isomers) [compound 25]	15	0	Inhibition of / binding to MurG (in words) (E. coli MurG): weak activity
COc1ccccc1[C@@H]1[C@@H]2C(=O)N(c3ccccc3)C(=O)[C@@H]2[C@H](C(=O)N(C)CC(=O)NC[C@H]2O[C@@H](n3ccc(=O)[nH]c3=O)[C@H](O)[C@@H]2O)N1C [compound 19]	31	–	Inhibition of / binding to MurG (in words) (E. coli MurG): did bind to MurG
ramoplanin [reference compound]	–	–	Inhibition of MurG (E. coli MurG; 20 μM ramoplanin): > 90%
C[C@@]1(C(=O)NCC(=O)NC[C@H]2O[C@@H](n3ccc(=O)[nH]c3=O)[C@H](O)[C@@H]2O)N[C@H](C(O)CO)[C@@H]2C(=O)N(c3ccccc3)C(=O)[C@@H]21 (mixture of isomers) [13e]	0	0	–
COC(=O)[C@H]1[C@@H](c2ccccc2OC)N[C@@](C)(C(=O)N2CCC[C@H]2C(=O)NC[C@H]2O[C@@H](n3ccc(=O)[nH]c3=O)[C@H](O)[C@@H]2O)[C@@H]1C(=O)OC (mixture of isomers) [20c]	22	0	–
COC(=O)[C@H]1[C@@H](c2ccccc2OC)N[C@@](C)(C(=O)N2CCC[C@H]2C(=O)NC[C@H]2O[C@@H](n3ccc(=O)[nH]c3=O)[C@H](O)[C@@H]2O)[C@H]1C(=O)OC (mixture of isomers) [20b]	0	0	–
COc1ccccc1[C@H]1N[C@@](C)(C(=O)NCC(=O)NC[C@H]2O[C@@H](n3ccc(=O)[nH]c3=O)[C@H](O)[C@@H]2O)[C@H]2C(=O)N(c3ccccc3)C(=O)[C@@H]12 (mixture of isomers) [13b]	85	0	Antibacterial activity against B. subtilis (in words) (B. subtilis): no effects; IC50 (E. coli MurG): 0.4 mM; Antibacterial activity against E. coli (in words) (E. coli): no effects; inhibition at 100 µg/mL (Micrococcus luteus): 50%; Antibacterial activity against Pseudomonas putida (in words) (Pseudomonas putida): no effects
CCN1C(=O)C2[C@@H](C1=O)[C@@H](C(O)CO)N[C@@]2(C)C(=O)N1CCC[C@H]1C(=O)NC[C@H]1O[C@@H](n2ccc(=O)[nH]c2=O)[C@H](O)[C@@H]1O (mixture of isomers) [20d]	0	0	–
COC(=O)[C@H]1[C@@H](c2ccccc2OC)N[C@@](C)(C(=O)NCC(=O)NC[C@H]2O[C@@H](n3ccc(=O)[nH]c3=O)[C@H](O)[C@@H]2O)[C@@H]1C(=O)OC (mixture of isomers) [14b]	32	0	IC50 (E. coli MurG): > 5 mM
COC(=O)C1C(c2ccc(OC)c(OC)c2)NC2(C)C(=O)N(CC(=O)NCC3OC(n4ccc(=O)[nH]c4=O)C(O)C3O)C(=O)C12 (centres unmarked) [16d]	26	0	IC50 (E. coli MurG): 4 mM
